Test results from patent US9504685B2, “Method for treating a pulmonary hypertension condition” (Gilead Sciences, Inc., priority 2006, dated 2016).

Test system: subjects with PAH
Assay: Example 1 (ARIES-2) placebo-controlled Phase III trial, efficacy
Type: in vivo, human
Description: The primary objective of this study was to determine the effect of ambrisentan on exercise capacity in subjects with PAH. The secondary objectives of this study were to evaluate effects of ambrisentan on other clinical measures of PAH, as well as safety and tolerability of the study drug.
Study drug was provided in round, biconvex, oral tablets that were identical in appearance. Three strengths of active study drug, containing 1 mg, 2.5 mg or 5 mg of ambrisentan, were used in this study. All study drug was packaged in blister cards. Subjects were instructed to take study drug once daily (q.d.) by mouth (p.o.) in the morning, with or without food.
The maximum study duration was up to 14 weeks from the time of initial screening procedures to the final study visit (Week 12). Screening procedures were performed a maximum of 2 weeks prior to the first dose of study drug. The maximum duration of study drug treatment was 12 weeks.
Men and women, 18 years of age or older, with idiopathic PAH, PAH associated with connective tissue disease (CTD), e.g., mixed CTD, CREST syndrome, systemic sclerosis (scleroderma), overlap syndrome or systemic lupus erythematosus, or PAH associated with anorexigen use or HIV infection were enrolled in this study. Subjects were to have a documented mean PAP≧25 mmHg, PVR>3 mmHg/L/min, and PCWP or LVEDP<15 mmHg. Subjects must have been able to walk a distance of at least 150 m but no more than 450 m during 2 consecutive 6MWTs to be eligible for inclusion in the study.
After a 2 week screening period, eligible subjects were stratified based on the underlying etiology of PAH (idiopathic or non-idiopathic) and were randomized to 1 of 3 treatment groups (placebo, 2.5 mg or 5 mg ambrisentan) in a ratio of 1:1:1. One blinded dose reduction was permitted during the 12-week treatment period in the event of study drug intolerance (e.g., 5 mg to 2.5 mg, 2.5 mg to 1 mg, placebo to placebo). Subjects received a daily dose of 1 mg ambrisentan only if they reduced from the 2.5 mg dose group. Subjects were assessed for efficacy and safety at monthly intervals.
Therefore, after a minimum treatment period of 4 weeks, subjects who met 2 or more of the following predefined early escape criteria may have been removed from the study: • (a) a decrease from baseline of at least 20% in 6MWD; • (b) an increase of 1 or more WHO functional class; • (c) worsening right ventricular failure (e.g., as indicated by increased jugular venous pressure, new or worsening hepatomegaly, ascites or peripheral edema); • (d) rapidly progressing cardiogenic, hepatic or renal failure; and/or • (e) refractory systolic hypotension (systolic blood pressure <85 mmHg).
The primary efficacy endpoint was change from baseline in 6MWD evaluated after 12 weeks of treatment compared to placebo.
The secondary efficacy endpoints included: • (a) time to clinical worsening of PAH, as defined by the time from randomization to the first occurrence of death, lung transplantation, hospitalization for PAH, atrial septostomy, study discontinuation due to addition of other PAH therapeutic agents, or study discontinuation due to 2 or more early escape criteria; • (b) change from baseline measured after 12 weeks of treatment compared to placebo in: • (i) WHO functional class; • (ii) SF-36® health survey physical functioning scale; • (iii) BDI immediately following exercise; and/or • (iv) an assessment of the safety and tolerability of the study drug; and • (c) change from baseline measured after 12 weeks of treatment compared to placebo in plasma levels of ET-1, cTnT and BNP. Safety Assessments
For the ITT population, subjects were considered as belonging to their randomized treatment group, regardless of the actual treatment received.
The primary efficacy endpoint was the change from baseline in 6MWD evaluated after 12 weeks of treatment compared to placebo, where the last observation was carried forward. […]

[1] = 5 mg once daily, baseline to Week 12
[2] = combined 2.5 mg and 5 mg groups, 12 weeks
[3] = combined 2.5 mg and 5 mg groups, ITT population
[4] = combined 2.5 mg and 5 mg groups, baseline to Week 12

With COC(c1ccccc1)(c1ccccc1)[C@H](Oc1nc(C)cc(C)n1)C(=O)O [ambrisentan] the “Change in SF-36 Role-physical, mean (SD)” value [1] was “+7.61 (10.41)”, the “Change in SF-36 Social functioning, mean (SD)” value [1] was “+4.85 (11.89)” and the “Change in SF-36 Vitality, mean (SD)” value [1] was “+5.21 (8.79)”. For the same molecule, the “Change in WHO functional class: +1 class” value [1] was 2 (3.2) subjects (% of ITT population), the “Change in WHO functional class: +2 classes” value [1] was 0 (0.0) subjects (% of ITT population) and the “Change in WHO functional class: no change” value [1] was 52 (82.5) subjects (% of ITT population). The “Change in WHO functional class: −1 class” value [1] was 8 (12.7) subjects (% of ITT population), the “Change in WHO functional class: −2 classes” value [1] was 1 (1.6) subjects (% of ITT population) and the “placebo-adjusted 6MWD change from baseline at Week 12” value (“placebo-adjusted 6MWD change” for short) (South American subgroup, 2.5 mg once daily) was “+50.5 m”. For the same molecule, the “placebo-adjusted 6MWD change” value (South American subgroup, 5 mg once daily) was “+79.5 m”, the “placebo-adjusted 6MWD change” value (WHO class I/II subgroup, 2.5 mg once daily) was “+44.1 m” and the “placebo-adjusted 6MWD change” value (WHO class I/II subgroup, 5 mg once daily) was “+67.7 m”. The “placebo-adjusted 6MWD change” value (WHO class III/IV subgroup, 2.5 mg once daily) was “+17.6 m”, the “placebo-adjusted 6MWD change” value (WHO class III/IV subgroup, 5 mg once daily) was “+51.8 m” and the “placebo-adjusted BDI at Week 12” value (combined 2.5 mg and 5 mg groups) was −1.1. For the same molecule, the “Clinical worsening event: Atrial septostomy” value [2] was 0 (0.0) subjects (% of ITT population), the “Clinical worsening event: Death” value [2] was 2 (1.6) subjects (% of ITT population) and the “Clinical worsening event: Escape criteria” value [2] was 3 (2.4) subjects (% of ITT population). The “Clinical worsening event: Hospitalization for PAH” value [2] was 5 (3.9) subjects (% of ITT population), the “Clinical worsening event: Lung transplantation” value [2] was 0 (0.0) subjects (% of ITT population) and the “Clinical worsening event: Study withdrawal due to addition of PAH treatment” value [2] was 0 (0.0) subjects (% of ITT population). For the same molecule, the “Clinical worsening: Total subjects with ≧1 event” value [2] was 6 (4.7) subjects (% of ITT population), the “Change in 6MWD from baseline to Week 12, mean” value [3] was “+35.7 meters” and the “Week 12 6MWD, mean” value [3] was 387.0 meters. For the same molecule, the “subjects who deteriorated by at least 1 WHO class” value (combined 2.5 mg and 5 mg groups, Week 12) was 3.9%, the “Change in SF-36 Bodily pain, mean (SD)” value [4] was “+1.40 (10.96)” and the “Change in SF-36 General health, mean (SD)” value [4] was “+4.40 (7.40)”. The “Change in SF-36 Mental component summary, mean (SD)” value [4] was “+5.17 (11.00)”, the “Change in SF-36 Mental health, mean (SD)” value [4] was “+4.50 (9.88)” and the “Change in SF-36 Physical component summary, mean (SD)” value [4] was “+3.38 (7.69)”. The “Change in SF-36 Role-emotional, mean (SD)” value [4] was “+5.63 (13.86)”, the “Change in SF-36 Role-physical, mean (SD)” value [4] was “+6.74 (11.07)” and the “Change in SF-36 Social functioning, mean (SD)” value [4] was “+4.70 (10.81)”. The “Change in SF-36 Vitality, mean (SD)” value [4] was “+4.64 (8.94)”, the “Change in WHO functional class: +1 class” value [4] was 4 (3.1) subjects (% of ITT population) and the “Change in WHO functional class: +2 classes” value [4] was 1 (0.8) subjects (% of ITT population). For the same molecule, the “Change in WHO functional class: no change” value [4] was 103 (81.1) subjects (% of ITT population), the “Change in WHO functional class: −1 class” value [4] was 18 (14.2) subjects (% of ITT population) and the “Change in WHO functional class: −2 classes” value [4] was 1 (0.8) subjects (% of ITT population). The “placebo-adjusted 6MWD change” value (eastern European subgroup, 2.5 mg once daily) was “+66.1 m”, the “placebo-adjusted 6MWD change” value (eastern European subgroup, 5 mg once daily) was “+88.0 m” and the “placebo-adjusted 6MWD change” value (female subjects, 2.5 mg once daily) was “+42.5 m”. For the same molecule, the “placebo-adjusted 6MWD change” value (female subjects, 5 mg once daily) was “+75.7 m”, the “placebo-adjusted 6MWD change” value (idiopathic PAH subgroup, 2.5 mg once daily) was “+56.3 m” and the “placebo-adjusted 6MWD change” value (idiopathic PAH subgroup, 5 mg once daily) was “+75.7 m”. The “placebo-adjusted 6MWD change” value (male subjects, 2.5 mg once daily) was “+6.8 m”, the “placebo-adjusted 6MWD change” value (male subjects, 5 mg once daily) was “+2.7 m” and the “placebo-adjusted 6MWD change” value (non-idiopathic PAH subgroup, 2.5 mg once daily) was −12.6 m. For the same molecule, the “placebo-adjusted 6MWD change” value (non-idiopathic PAH subgroup, 5 mg once daily) was “+29.5 m”, the “reduction in the probability of clinical worsening (hazard ratio) compared to placebo” value (subjects receiving ambrisentan (combined group), 12 weeks) was 80% and the “subjects hospitalized for PAH” value (subjects receiving ambrisentan (combined), 12 weeks) was 3.9%. For the same molecule, the “placebo-adjusted 6MWD change” value (western European/Israel subgroup, 2.5 mg once daily) was “+3.0 m” and the “placebo-adjusted 6MWD change” value (western European/Israel subgroup, 5 mg once daily) was “+39.4 m”.
